Test system: Haemunchus contortus
Assay: Anthelmintic activity in lambs artificially infected with abomasal nematodes (coproscopy up to 14 days after application, then necropsy with helminthological work-up)
Format: in vivo
Conditions: Lämmer 30 bis 40 kg
Excerpt: Die anthelminthische Wirkung der Elaiophylinderivate wurde an Lämmern mit 30 bis 40 kg Körpergewicht untersucht. Dazu wurden die Lämmer artifiziell mit Infektionsstadien von Labmagennematoden (Haemunchus contortus) infiziert. Nach Abschluß der Entwicklungszeit (Präpatenzperiode) der Nematoden erfolgte die Applikation der Elaiophylinderivate.
Durch koproskopische Untersuchungen vor und bis zu 14 Tagen nach der Applikation der Elaiophylinderivate und anschließender Sektion mit helminthologischer Aufarbeitung wurde die prozentuale Reduktion der Schaf-Nematoden ermittelt (s. Tabelle 7). Als Vergleichssubstanz diente Elaiophylin. Zusätzlich wurde auch noch die antibakterielle Aktivität der erfindungsgemäßen Elaiophylinderivate gegen Staph. aureus und Strept. pyogenes ermittelt. Überraschenderweise zeigen die erfindungsgemäßen Verbindung keine oder nur sehr geringe antibakterielle Aktivität. Gerade deshalb eignen sich die erfindungsgemäßen Verbindungen insbesondere für den Einsatz als Anthelminthika, da hier eine antibakterielle Wirkung unerwünscht ist.

Compound	Reduktion v. H. contortus (%) (Dosierung 2,5 mg/kg (s.c.))	Reduktion v. H. contortus (%) (Dosierung 5,0 mg/kg (oral))
CCOC(=O)C1NN=C2C(=O)OC(C(C)C(O)C(C)C3(O)CC(OC4CC(O)C(O)C(C)O4)C(CC)C(C)O3)C(C)/C=C/C3C(=NNC3C(=O)OCC)C(=O)OC(C(C)C(O)C(C)C3(O)CC(OC4CC(O)C(O)C(C)O4)C(CC)C(C)O3)C(C)/C=C/C21 (stereo not shown) [Verbindung 6]	50-60%	50-60%
CCC1C(C)OC(O)(C(C)C(O)C(C)C2OC(=O)C3=NNCC3/C=C/C(C)C(C(C)C(O)C(C)C3(O)CC(OC4CC(O)C(O)C(C)O4)C(CC)C(C)O3)OC(=O)C3=NNCC3/C=C/C2C)CC1OC1CC(O)C(O)C(C)O1 (stereo not shown) [Verbindung 1]	–	35-45%
CCC1C(C)OC(O)(C(C)C(O)C(C)C2OC(=O)C3=NNCC3/C=C/C(C)C(C(C)C(O)C(C)C3(O)CC(OC4CC(OC(C)=O)C(OC(C)=O)C(C)O4)C(CC)C(C)O3)OC(=O)C3=NNCC3/C=C/C2C)CC1OC1CC(OC(C)=O)C(OC(C)=O)C(C)O1 (stereo not shown) [Verbindung 2]	–	40-50%

Reference: EP0339444A1, “Elaiophylin derivatives, process for their preparation and use as medicaments” (HOECHST AKTIENGESELLSCHAFT, priority 1988, dated 1989)
